Earlier results as cited in patent US9492489B2, “Uses of hibiscus, in particular pharmaceutical uses” (NATUREX, priority 2007, dated 2016).

Key:
[1] = test system: Escherichia coli
[2] = test system: Bacillus pumpilus
[3] = test system: Pseudomonas aeruginosa
[4] = test system: Staphylococcus aureus
[5] = test system: Bacillus subtilis

Measured: antibacterial properties in vitro

O=c1c(O)c(-c2ccc(O)c(O)c2)oc2c(O)c(O)cc(O)c12 [gossypetin, 3,5,7,8,3′,4′-hexahydroxy-flavone]
antibacterial properties: all assays above
